Active and inactive are the calls of the source.
Tests used:
HeLa = experiment: ATP-based viability loss in HeLa cells – cell-based, CellTiter-Glo luminescence, cherry-pick samples, cytotoxicity control for MITF activator project, dose response (AID 540259); assay type: functional; conditions: Homo sapiens
[1] = A cytotoxicity screen of small molecule inhibitors of the PhoP region in Salmonella typhi identified in the primary screen. [Related pubchem assays: 1850, 1864, 1985 ]; assay type: functional
[2] = M. tuberculosis growth inhibition, HTS (AID 449762); assay type: functional
[3] = target: T1, Small ubiquitin-related modifier 1 (Homo sapiens, UniProt P63165); experiment: SUMO1 protein interaction blockers, potency – biochemical, fluorescence polarization, uHTS hits, dose response (AID 624382); assay type: functional; conditions: read-out: IC50_Mean
T1 sequence (P63165 whole entry, the tested form may be a part): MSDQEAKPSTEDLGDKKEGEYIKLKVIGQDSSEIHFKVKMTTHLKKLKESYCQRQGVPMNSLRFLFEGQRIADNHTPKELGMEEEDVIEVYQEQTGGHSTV

[4] = target: T2, Carboxy-terminal domain RNA polymerase II polypeptide A small phosphatase 1 (Homo sapiens, UniProt Q9GZU7); experiment: CTDSP1 inhibitors, concentration-response, biochemical, absorbance readout, ultra-high-throughput screen actives (AID 540297); assay type: functional
T2 sequence (Q9GZU7 whole entry): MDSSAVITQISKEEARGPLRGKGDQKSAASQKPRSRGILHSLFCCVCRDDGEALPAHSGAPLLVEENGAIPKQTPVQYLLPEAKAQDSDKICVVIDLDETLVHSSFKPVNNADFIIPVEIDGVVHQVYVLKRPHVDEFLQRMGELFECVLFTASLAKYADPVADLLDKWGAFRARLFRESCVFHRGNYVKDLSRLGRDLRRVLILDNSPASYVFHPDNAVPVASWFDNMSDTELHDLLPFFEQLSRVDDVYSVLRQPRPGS

[5] = target: Glutathione-S-transferase (Schistosoma japonicum, UniProt Q26513); experiment: GST-antibody interaction or FRET quenching – biochemical, TR-FRET, artefact control for Vif-APOBEC3G degradation inhibitor project, dose response (AID 1117362); assay type: functional
Sequence of Glutathione-S-transferase (Q26513 whole entry): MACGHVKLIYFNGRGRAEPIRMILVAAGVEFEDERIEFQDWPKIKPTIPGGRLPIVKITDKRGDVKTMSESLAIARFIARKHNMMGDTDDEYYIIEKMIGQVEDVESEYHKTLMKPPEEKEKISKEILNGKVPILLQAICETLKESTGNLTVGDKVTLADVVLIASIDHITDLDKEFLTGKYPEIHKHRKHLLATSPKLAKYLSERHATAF

[6] = target: T1, Small ubiquitin-related modifier 1; experiment: SUMO1 protein-protein binding blockers, potency – biochemical, FRET, dose response (AID 624383); assay type: functional; conditions: read-out: IC50_Mean
ELAV-like protein 1 = ELAV-like protein 1 (Homo sapiens, UniProt Q15717); experiment: Identify HuR specific inhibitors.; assay type: functional
Sequence of ELAV-like protein 1 (Q15717 whole entry): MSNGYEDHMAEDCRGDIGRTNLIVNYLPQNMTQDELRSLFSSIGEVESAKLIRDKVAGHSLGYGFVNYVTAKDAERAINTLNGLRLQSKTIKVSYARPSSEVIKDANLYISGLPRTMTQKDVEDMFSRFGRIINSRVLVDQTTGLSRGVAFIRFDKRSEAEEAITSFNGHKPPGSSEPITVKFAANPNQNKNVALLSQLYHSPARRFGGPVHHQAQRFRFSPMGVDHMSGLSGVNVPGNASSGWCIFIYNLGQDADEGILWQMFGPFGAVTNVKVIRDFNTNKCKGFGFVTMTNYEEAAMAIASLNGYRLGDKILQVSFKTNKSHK

[7] = antimalarial activity against Dd2 parasites – SYBR Green fluorescence, erythrocytes, dry powder, set 2, dose response (AID 1159574); assay type: functional, cell-based
[8] = growth inhibition of yeast DHODH-expressing 3D7 parasites – SYBR Green, dry powder samples, dose response (AID 1159570); assay type: functional, cell-based;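 further: parasite growth measured after 72 hours of compound exposure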
[9] = P. falciparum Dd2 growth inhibitors, dose response, SYBR Green, cherry-picked samples (AID 1159567); assay type: functional, cell-based
[10] = toxicity to human HepG2 hepatoma cells – cell-based, plate reader, dry powder samples, cytotoxicity control, dose response (AID 1159569); assay type: functional;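 further: inhibitor potency with signal falling toward the positive control level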
[11] = Dd2 malaria parasite growth inhibition potency – SYBR Green, dry powder samples, dose response (AID 1159566); assay type: functional, cell-based;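 further: potency for growth inhibition with lower SYBR green DNA signal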
[12] = Plasmodium falciparum Dd2 Sybr green parasite growth Measured in Cell-Based and Microorganism Combination System Using Plate Reader - 2153-01_Inhibitor_Dose_DryPowder_Activity_Set3.; assay type: functional
[13] = growth inhibition of PfATP4-mutant resistant parasites – NITD609-resistant line, SYBR Green, dry powder, dose response (AID 1159571); assay type: functional, cell-based;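 further: parasites synchronized at ring stage by sorbitol before testing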
[14] = target: G-protein coupled receptor 183 (Homo sapiens, UniProt P32249); experiment: SAR confirmation of small molecule antagonists of the EBI2 receptor via a luminescent beta-arrestin assa.; assay type: functional
Sequence of G-protein coupled receptor 183 (P32249 whole entry): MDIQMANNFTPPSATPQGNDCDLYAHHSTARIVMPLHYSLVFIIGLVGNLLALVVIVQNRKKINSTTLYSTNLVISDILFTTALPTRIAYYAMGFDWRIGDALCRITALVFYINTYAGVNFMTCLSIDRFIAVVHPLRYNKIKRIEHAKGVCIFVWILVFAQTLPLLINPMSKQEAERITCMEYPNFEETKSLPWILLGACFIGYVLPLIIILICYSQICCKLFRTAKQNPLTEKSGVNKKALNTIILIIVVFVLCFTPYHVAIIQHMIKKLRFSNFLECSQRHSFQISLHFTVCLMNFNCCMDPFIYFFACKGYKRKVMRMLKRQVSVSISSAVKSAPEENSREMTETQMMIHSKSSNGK

[15] = target: T3, Low molecular weight phosphotyrosine protein phosphatase (Homo sapiens, UniProt P24666); experiment: inhibition of LMPTP-A enzymatic activity – biochemical, OMFP substrate, fluorescence intensity, set 2, dose response (AID 743307); assay type: functional
T3 sequence (P24666 whole entry): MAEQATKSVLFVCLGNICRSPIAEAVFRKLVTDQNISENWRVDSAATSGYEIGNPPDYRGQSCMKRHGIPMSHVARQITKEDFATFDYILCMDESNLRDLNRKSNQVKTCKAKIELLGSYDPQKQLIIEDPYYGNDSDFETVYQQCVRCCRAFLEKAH

[16] = target: T3, Low molecular weight phosphotyrosine protein phosphatase; experiment: inhibition of human LMPTP enzyme activity – biochemical, absorbance, pNPP substrate, LMPTP-A isoform, set 2, orthogonal assay, dose response (AID 743308); assay type: functional
[17] = Dd2 parasite growth inhibition in erythrocytes – SYBR Green, dry powder samples, set 9, dose response (AID 1159568); assay type: functional, cell-based
cells = assay type: functional, cell-based; conditions: INS-1E
[18] = IC50 of insulin release inhibition, rat insulinoma INS-1E line, 5 mM glucose, cell-based (AID 1117331); assay type: functional
H9c2 = experiment: cells; assay type: functional, cell-based; conditions: Rattus norvegicus, H9c2, Myocardium;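 further: confirmatory concentration-response retest of ultra-high-throughput screening hits for modulation of myocardial damage; cell death induced by hydrogen peroxide oxidative stress; compound pretreatment for 60 min then peroxide exposure for 2 h; potency is for protecting the cells against peroxide damage rather than for killing them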
[19] = glucagon-like peptide-1 release potency in STC-1, concentration-response, half-maximal inhibitory concentration in the STC-1 line (AID 1117345); assay type: functional, cell-based
[20] = reduction of Shn3 3'UTR-driven luciferase in osteoblasts – cell-based, Clone20 osteoblasts, firefly luciferase, cherry-picked, dose response (AID 624132); assay type: functional;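 further: firefly luciferase luminescence from reporter carrying the Shn3 3'UTR in osteoblasts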
[21] = rise of 2N DNA cells, HeLa – IC50, dose response (AID 1117349); assay type: functional, cell-based
[22] = Potency on glucagon-like peptide 1 release, dose-response in NCI-H716 cell line, half maximal inhibitory concentration (AID 1117344); assay type: functional, cell-based
Bcl-2-related protein A1 [23] = target: T4, Bcl-2-related protein A1 (Mus musculus, UniProt Q07440); experiment: small-molecule antagonists of Bfl-1/BH3 interaction – biochemical, TR-FRET, mouse Bfl-1, confirmation (AID 621);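 further: TR-FRET binding of GST-Bfl-1 to FITC-labelled Bid peptide via terbium antibody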
T4 sequence (Q07440 whole entry): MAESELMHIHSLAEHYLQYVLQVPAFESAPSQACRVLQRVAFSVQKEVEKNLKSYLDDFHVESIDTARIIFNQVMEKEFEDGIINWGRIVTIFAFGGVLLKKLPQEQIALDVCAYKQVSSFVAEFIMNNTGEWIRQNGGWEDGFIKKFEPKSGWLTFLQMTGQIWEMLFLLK

Bcl-2-related protein A1 [24] = target: T4, Bcl-2-related protein A1; experiment: displacement of Bid BH3 peptide from Bfl-1 – biochemical, fluorescence polarization, FITC-Bid, mouse, primary screen (AID 432)
[25] = rise of 4N DNA cells, HeLa – IC50, dose response (AID 1117351); assay type: functional, cell-based
[26] = non-specific 3'UTR reporter inhibition in Clone20-Shn3RL – cell-based, Renilla luciferase, cherry-picked, counter-screen for Shn3 inhibitor project, dose response (AID 624133); assay type: functional

For Nc1ccc(N=Nc2ccccc2)c(N)n1, which AC50 (HeLa) is on record?
The AC50 was 36 µM (active).

What about the EC50 [1] of the same compound?
Its EC50 is > 50 µM (active).

And the IC50 [2]?
Its IC50 is > 100 µM (active).

For CCOC(=O)C(=O)Cc1cccnn1, which IC50 [3] is on record?
The IC50 was > 66.6 µM (inactive).

What about the IC50 [4] of the same compound?
Its IC50 is 4.08 µM (active).

And the IC50 [5]?
The IC50 was > 100 µM (active).

And the IC50 [6]?
Its IC50 is 6.34 µM (active).

And the IC50 (ELAV-like protein 1)?
The IC50 was 4.6 µM (inactive).

For COc1ccc(NC(=O)N2CCCCN3[C@@H](CO)[C@H](c4ccc(C#Cc5ccccc5)cc4)[C@@H]3C2)cc1, which AC50 [7] is on record?
Its AC50 is 0.036 µM (active).

Which AC50 [8] does the source give for CCCC(=O)Nc1ccc2c(c1)OC[C@@H](C)N(Cc1cccc(F)c1)C[C@@H](C)[C@H](OC)CN(C)C2=O here?
Its AC50 is 5.76 µM (active).

And the AC50 [9]?
Its AC50 is 1.09 µM (active).

And the AC50 [10]?
Its AC50 is 58.9 µM (active).

What about the AC50 [11] of the same compound?
Its AC50 is 0.884 µM (active).

What about the AC50 [12] of the same compound?
Its AC50 is 1.82 µM (active).

What about the AC50 [13] of the same compound?
Its AC50 is 2.24 µM (active).

For CCCCN1CCN(C(=O)/C=C/c2ccc(Br)cc2)CC1, which IC50 [14] is on record?
The IC50 was 0.0021 µM (active).

Which results are given for COc1cccc(-c2cc(NCCCN3CCCCC3)c3ccccc3n2)c1?
IC50 [15]: 2.21 µM (active); IC50 [16]: 4.89 µM (active)

Which AC50 [8] does the source give for COc1cccc(-c2cccc(-c3nc(C(=O)NCc4ccc(Oc5ccccc5)cc4)cc4c3[C@@H](CCO)N([S+]([O-])C(C)(C)C)C4)c2)c1 (some centres undefined) here?
The AC50 was 0.826 µM (active).

And the AC50 [9]?
Its AC50 is 0.671 µM (active).

And the AC50 [17]?
Its AC50 is 0.447 µM (active).

And the AC50 [11]?
The AC50 was 0.237 µM (active).

And the AC50 [13]?
The AC50 was 0.449 µM (active).

For O=c1[nH]c2ccccc2n1CCCN1CCC(n2c(=O)[nH]c3cc(Cl)ccc32)CC1 [DOMPERIDONE], which IC50 (cells) is on record?
The IC50 was > 33.3 µM (inactive).

What about the IC50 [18] of the same compound?
The IC50 was 12.4 µM (inactive).

And the IC50 (H9c2)?
The IC50 was > 79 µM (inactive).

With CC[C@H](C)C(=O)O[C@H]1C[C@@H](C)C=C2C=C[C@H](C)[C@H](CC[C@@H]3C[C@@H](O)CC(=O)O3)[C@H]21 [LOVASTATIN] as the compound, how does the IC50 [19] read?
The IC50 was > 40 µM (inactive).

And the AC50 [20]?
The AC50 was 1.62 µM (active).

What about the IC50 [21] of the same compound?
Its IC50 is > 10 µM (inactive).

And the IC50 [22]?
Its IC50 is 32.9 µM (inactive).

What about the IC50 (Bcl-2-related protein A1 [23]) of the same compound?
Its IC50 is > 100 µM (not active).

What about the IC50 (Bcl-2-related protein A1 [24]) of the same compound?
The IC50 was > 100 µM (not active).

And the IC50 [25]?
The IC50 was > 10 µM (inactive).

What about the AC50 [26] of the same compound?
The AC50 was 4.74 µM (active).

Reference: ChEMBL document CHEMBL1201862, “PubChem BioAssay data set” (2004)
